The molecules below were run against T1, CXCR3 (Homo sapiens, UniProt P49682) (assay: CXCR3 cAMP agonist assay (cAMP Hunter CHOK1 CXCR3 Gi cell line, forskolin-stimulated, HitHunter cAMP detection)). Conditions: cAMP Hunter CHOK1 CXCR3 Gi cells, 20 μM forskolin, 30 minutes; read-out: Activity (CXCR3 cAMP agonist assay compound EC50).
T1 construct: host or cells: CHO-K1 (cAMP Hunter CHOK1 CXCR3 Gi cell line)
T1 sequence (P49682 1-368): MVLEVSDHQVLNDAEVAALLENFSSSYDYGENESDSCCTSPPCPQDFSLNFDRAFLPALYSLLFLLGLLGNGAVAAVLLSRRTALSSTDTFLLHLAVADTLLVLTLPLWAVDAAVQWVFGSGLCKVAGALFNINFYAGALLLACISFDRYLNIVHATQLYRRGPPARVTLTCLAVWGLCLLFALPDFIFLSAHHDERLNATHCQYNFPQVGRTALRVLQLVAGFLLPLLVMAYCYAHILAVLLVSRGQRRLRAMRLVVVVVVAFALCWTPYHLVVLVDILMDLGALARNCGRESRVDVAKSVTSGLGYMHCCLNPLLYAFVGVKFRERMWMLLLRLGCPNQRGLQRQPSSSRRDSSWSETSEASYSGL
Type: cell-based
Description: The cAMP Hunter™ CHOK1 CXCR3 Gi cell line was purchased from DiscoveRx. Cells were seeded into a 96-well white assay plate at 50,000 cells/well/94 μl assay buffer (Hank's Buffered Saline Solution, 10 mM HEPES, 0.1% fatty acid-free BSA, pH 7.4) and immediately assayed in suspension. Forskolin was added to 20 μM (5 μl of 400 μM stock) simultaneously with a 12-point dose response curve of compound at 0-10 μM (1 μl of 100× stock in 100% DMSO), and cells were incubated for 30 minutes. A cAMP standard curve is run as an assay control. A CXCL11 dose response was included to determine maximum efficacy. Direct detection of cAMP was carried out using the DiscoveRx HitHunter cAMP kit according to manufacturer's instructions, and luminescence was read using a SpectraMax M5 plate reader.

EC50 [nM] | SMILES
< 50 | Cc1cc(NC(=O)[C@H](CCNCC(C)C)NC(=O)[C@@H]2Cc3ccccc3CN2C(=O)CCC(=O)c2ccccc2)ccc1Cl [Compound 8-1, (S)—N—((S)-1-((4-chloro-3-methylphenyl)amino)-4-(isobutylamino)-1-oxobutan-2-yl)-2-(4-oxo-4-phenylbutanoyl)-1,2,3,4-tetrahydroisoquinoline-3-carboxamide]
> 500 | Cc1cc(NC(=O)[C@H](CCN)NC(=O)[C@@H]2Cc3ccccc3CN2C(=O)CCC(=O)N2CC3(COC3)C2)ccc1Cl [Compound 12-9]
> 500 | Cc1cc(NC(=O)C(NC(=O)[C@@H]2Cc3ccccc3CN2C(=O)CCC(=O)c2ccccc2)C2CCNCC2)ccc1Cl (mixture of isomers) [Compound 4-7]
< 50 | NCC[C@H](NC(=O)[C@@H]1Cc2ccccc2CN1C(=O)CCC(=O)c1ccccc1)C(=O)Nc1ccc(F)c(C(F)(F)F)c1 [Compound 2-14]
< 50 | O=C(NC1(C(=O)Nc2ccc(Cl)c(Cl)c2F)CCNCC1)[C@@H]1Cc2ccccc2CN1C(=O)CCC(=O)N1CCCC12CCC2 [Compound 12-136]
50 to 250 | Cc1cc(NC(=O)[C@H](CCN)NC(=O)[C@@H]2Cc3ccccc3CN2C(=O)CCC(=O)N2CCCN(C)CC2)ccc1Cl [Compound 12-34]
< 50 | Cc1cc(NC(=O)[C@H](CCN)NC(=O)[C@@H]2Cc3ccccc3CN2C(=O)CCC(=O)N2CCC3(CCC3)CC2)ccc1Cl [Compound 12-59]
< 50 | Cc1ccc(NC(=O)[C@H](CCN)NC(=O)[C@@H]2Cc3ccccc3CN2C(=O)CCC(=O)c2ccccc2)cc1Cl [Compound 2-16]
< 50 | Cc1cc(NC(=O)[C@H](CCN)NC(=O)[C@@H]2Cc3ccccc3CN2C(=O)CCC(=O)N2CCCC2(C)C)ncc1Cl [Compound 12-157]
< 50 | NCC[C@H](NC(=O)[C@@H]1Cc2ccccc2CN1C(=O)CCC(=O)c1ccccc1)C(=O)Nc1cccc(Cl)c1Cl [Compound 14-8]
< 50 | CC[C@H]1CCCN1C(=O)CCC(=O)N1Cc2ccccc2C[C@H]1C(=O)N[C@@H](CCN)C(=O)Nc1ccc(Cl)c(C)c1 [Compound 12-111]
250 to 500 | NCC[C@H](NC(=O)[C@@H]1Cc2ccccc2CN1C(=O)CCC(=O)N1CCC2(CC1)COC2)C(=O)Nc1ccc(Cl)c(Cl)c1F [Compound 15-12]
50 to 250 | Cc1cc(NC(=O)[C@H](CCN)NC(=O)[C@@H]2Cc3ccccc3CN2C(=O)CCC(=O)NC(C)(C)C)ccc1Cl [Compound 12-83]
< 50 | Cc1cc(NC(=O)C2(NC(=O)[C@@H]3Cc4ccccc4CN3C(=O)CCC(=O)c3ccccc3)CCNCC2)c(Cl)cc1Cl [Compound 11-6]
250 to 500 | NCC[C@H](NC(=O)[C@@H]1Cc2ccccc2CN1C(=O)CCC(=O)c1ccccc1)C(=O)Nc1cc(Cl)c(F)c(Cl)c1 [Compound 27-2]
250 to 500 | COc1ccccc1NC(=O)[C@H](CCCCN)NC(=O)[C@@H]1Cc2ccccc2CN1C(=O)CCC(=O)c1ccccc1 [Compound 1-6]
50 to 250 | CCC(C)(C)NC(=O)CCC(=O)N1Cc2ccccc2C[C@H]1C(=O)N[C@@H](CCN)C(=O)Nc1ccc(Cl)c(C)c1 [Compound 12-92]
< 50 | Cc1cc(NC(=O)[C@H](CCN)NC(=O)[C@@H]2Cc3ccccc3CN2C(=O)CCC(=O)N2CCN(C)c3ccccc32)ccc1Cl [Compound 12-140]
< 50 | Cc1cc(NC(=O)[C@H](CCN)NC(=O)[C@@H]2Cc3ccccc3CN2C(=O)CCC(=O)N2CCN3CCC[C@@H]3C2)ccc1Cl [Compound 12-110]
< 50 | COc1cc(C)c(C)cc1NC(=O)[C@H](CCN)NC(=O)[C@@H]1Cc2ccccc2CN1C(=O)CCC(=O)c1ccccc1 [Compound 2-79]
50 to 250 | NCCCC[C@H](NC(=O)[C@@H]1Cc2ccccc2CN1C(=O)CCC(=O)c1ccccc1)C(=O)Nc1cccc(C(F)(F)F)c1 [Compound 1-13]
< 50 | Cc1cc(NC(=O)[C@H](CCN)NC(=O)[C@@H]2Cc3ccccc3CN2C(=O)CCC(=O)N2CCOCC2(C)C)ccc1Cl [Compound 12-23]
< 50 | Cc1cc(NC(=O)[C@H](CCN)NC(=O)[C@@H]2Cc3ccccc3CN2C(=O)CCC(=O)N2[C@H](C)CCC[C@H]2C)ccc1Cl [Compound 12-141]
> 500 | Cc1cc(NC(=O)[C@H](CCN)NC(=O)[C@@H]2Cc3ccccc3CN2C(=O)CCC(=O)NCc2ccccc2)ccc1Cl [Compound 12-18]

EC50 [nM] | SMILES
50 to 250 | Cc1cc(NC(=O)[C@H](CCN)NC(=O)[C@@H]2Cc3ccccc3CN2C(=O)CCC(=O)N2CCN(c3nccs3)CC2)ccc1Cl [Compound 12-108]
< 50 | Cc1cc(NC(=O)[C@H](CCN)NC(=O)[C@@H]2Cc3ccccc3CN2C(=O)CCC(=O)N2CCCC3(CCC3)C2)cc(C)c1Cl [Compound 10-11]
< 50 | N#Cc1ccccc1NC(=O)[C@H](CCN)NC(=O)[C@@H]1Cc2ccccc2CN1C(=O)CCC(=O)c1ccccc1 [Compound 27-4]
50 to 250 | Cc1cc(NC(=O)[C@H](CCN)NC(=O)[C@@H]2Cc3ccccc3CN2C(=O)CCC(=O)NCC2CCCC2)ccc1Cl [Compound 12-10]
250 to 500 | NCC[C@H](NC(=O)[C@@H]1Cc2ccccc2CN1C(=O)CCC(=O)c1ccccc1)C(=O)Nc1cccc(-c2ccccc2)c1 [Compound 2-29]
50 to 250 | COc1c(NC(=O)[C@H](CCN)NC(=O)[C@@H]2Cc3ccccc3CN2C(=O)CCC(=O)c2ccccc2)ccc2c1CCCC2 [Compound 2-62]
50 to 250 | Cc1cc(NC(=O)[C@H](Cc2cncs2)NC(=O)[C@@H]2Cc3ccccc3CN2C(=O)CCC(=O)c2ccccc2)ccc1Cl [Compound 5-3]
< 50 | Cc1cc(NC(=O)[C@H](CCN2CCC(O)CC2)NC(=O)[C@@H]2Cc3ccccc3CN2C(=O)CCC(=O)c2ccccc2)ccc1Cl [Compound 17-1, (S)—N—((S)-1-((4-chloro-3-methylphenyl)amino)-4-(4-hydroxypiperidin-1-yl)-1-oxobutan-2-yl)-2-(4-oxo-4-phenylbutanoyl)-1,2,3,4-tetrahydroisoquinoline-3-carboxamide]
50 to 250 | CCN1CCN(C(=O)CCC(=O)N2Cc3ccccc3C[C@H]2C(=O)N[C@@H](CCN)C(=O)Nc2ccc(Cl)c(C)c2)C(C)(C)C1 [Compound 12-126]
< 50 | Cc1c(Cl)ccc(NC(=O)[C@H](CCN)NC(=O)[C@@H]2Cc3ccccc3CN2C(=O)CCC(=O)N2CCCC3(CCC3)C2)c1Cl [Compound 15-51]
< 50 | Cc1cc(NC(=O)[C@H](CCN)NC(=O)[C@@H]2Cc3ccccc3CN2C(=O)CCC(=O)N2CCC(C)(C)CC2)ccc1Cl [Compound 12-28]
250 to 500 | NC(=O)NCCCC[C@H](NC(=O)[C@@H]1Cc2ccccc2CN1C(=O)CCC(=O)c1ccccc1)C(=O)Nc1ccc(Cl)c(Cl)c1 [Compound 3-6]
50 to 250 | NCCCC[C@H](NC(=O)[C@@H]1Cc2ccccc2CN1C(=O)CCC(=O)c1ccccc1)C(=O)Nc1cccc(Cl)c1 [Compound 1-9]
< 50 | CC1(C)CCCCN1C(=O)CCC(=O)N1Cc2ccccc2C[C@H]1C(=O)N[C@@H](CCN1CCC(O)CC1)C(=O)Nc1ccc(Cl)c(Cl)c1F [Compound 26-1, (S)—N—((S)-1-((3,4-dichloro-2-fluorophenyl)amino)-4-(4-hydroxypiperidin-1-yl)-1-oxobutan-2-yl)-2-(4-(2,2-dimethylpiperidin-1-yl)-4-oxobutanoyl)-1,2,3,4-tetrahydroisoquinoline-3-carboxamide]
> 500 | Cc1cc(NC(=O)[C@H](CCN)NC(=O)[C@@H]2Cc3ccccc3CN2C(=O)CCC(=O)NCC2CCOCC2)ccc1Cl [Compound 12-12]
50 to 250 | NCC[C@H](NC(=O)[C@@H]1Cc2ccccc2CN1C(=O)CCC(=O)c1ccccc1)C(=O)Nc1ccc2c(c1)OCO2 [Compound 2-63]
< 50 | Cc1cc(NC(=O)[C@H](CCN)NC(=O)[C@@H]2Cc3ccccc3CN2C(=O)CCC(=O)N2CCC3CCCCC32)ccc1Cl (stereo partly drawn) [Compound 12-95]
< 50 | Cc1cc(NC(=O)[C@H](Cc2c[nH]cn2)NC(=O)[C@@H]2Cc3ccccc3CN2C(=O)CCC(=O)c2ccccc2)ccc1Cl [Compound 4-8]
> 500 | NCCCC[C@H](NC(=O)[C@@H]1Cc2ccccc2CN1C(=O)CCC(=O)c1ccccc1)C(=O)Nc1ccc(-c2ccccc2)cc1 [Compound 1-5]
250 to 500 | CC(C)N(C(=O)CCC(=O)N1Cc2ccccc2C[C@H]1C(=O)N[C@@H](CCN)C(=O)Nc1ccc(Cl)c(Cl)c1F)C(C)C [Compound 15-39]
50 to 250 | Cc1ccc(Cl)c(NC(=O)[C@H](CCN)NC(=O)[C@@H]2Cc3ccccc3CN2C(=O)CCC(=O)c2ccccc2)c1 [Compound 2-35]
50 to 250 | CC1(C)Cc2ccc(NC(=O)[C@H](CCN)NC(=O)[C@@H]3Cc4ccccc4CN3C(=O)CCC(=O)c3ccccc3)cc2C1 [Compound 2-75]
< 50 | Cc1cc(NC(=O)[C@H](CCN)NC(=O)[C@@H]2Cc3ccccc3CN2C(=O)CCC(=O)N2CCCC(C)(C)C2)ncc1Cl [Compound 12-155]

SMILES | EC50 [nM]
Cc1cc(NC(=O)[C@H](CCN)NC(=O)[C@@H]2Cc3ccccc3CN2C(=O)CCC(=O)N2CC3CC(C3)C2)ccc1Cl [Compound 12-66] | < 50
